Data set [1] can be described thus: Hygroscopicity (water absorption, European Pharmacopoeia 7.0, chapter 01/2008:51100). The data set is classed as physicochemical. The following applies: non-hygroscopic = less than 0.1% (w/w) of water absorption after 24 h exposure to 25° C./80% RH. On the procedure:
As used herein the term non-hygroscopic in relation to crystalline Elafibranor refers to less than 0.1% (w/w) of water absorption after 24 h exposure to 25° C./80% RH, determined according to European Pharmacopoeia 7.0, chapter 01/2008:51100. Water can be for example atmospheric water.

Data set [2] can be described thus: Thermodynamic (polymorphic) stability: conversion to other solid state forms, measured by XRPD. The data set is classed as physicochemical. Conditions: after exposure to conditions of up to 25° C./100% RH for at least 1 month, as measured by XRPD; stable = less than 20% conversion. How it is done: The crystalline Elafibranor as described above in (a)-(f) may be anhydrous. The crystalline Elafibranor may be substantially free of other solid state forms of Elafibranor. […] In some embodiments, the conversion is 1%-20%, 1%-10% or 1%-5%.
Melting peak of crystalline form I of Elafibranor is in the range of about 154° C. and about 164° C., for example about 158° C. and about 160° C., preferably at about 159° C. as measured by DSC. […] Thermodynamic stability in relation to crystalline Elafibranor form I refers to less than 20%, less than 10%, less than 5%, less than 2%, less than 1%, or less than 0.5% conversion of crystalline Elafibranor form I to any other solid state form of Elafibranor after exposure of form I to conditions of up to 25° C./100% RH for at least 1 month, as measured by XRPD. In some embodiments, the conversion is 1%-20%, 1%-10% or 1%-5%.
Thermodynamic stability in relation to crystalline Elafibranor form II refers to less than 20%, 10%, 5%, 2%, 1%, or 0.5% conversion of crystalline Elafibranor form II to any other solid state form of Elafibranor after exposure of form II to conditions of up to 25° C./100% RH for at least 1 month, as measured by XRPD. In some embodiments, the conversion is 1%-20%, 1%-10% or 1%-5%.
Sample after being powdered in a mortar and pestle is applied directly on a silicon plate holder. […]

Regarding `CSc1ccc(C(=O)/C=C/c2cc(C)c(OC(C)(C)C(=O)O)c(C)c2)cc1` [form I, 2-(2,6-dimethyl-4-{3-[4-(methylsulfanyl)phenyl]-3-oxoprop-1-en-1-yl}phenoxy)-2-methylpropanoic acid], the hygroscopicity result in data set [1] is given as “non-hygroscopic”. Also, the “thermodynamic stability (conversion to any other solid state form of Elafibranor)” value in data set [2] is reported as “thermodynamically stable”.
